The source of these data is ChEMBL document CHEMBL5291721, “A preclinical secondary pharmacology resource illuminates target-adverse drug reaction associations of marketed drugs” (Nat Commun, 2023).

SMILES strings stand for the structures.

Experiment [1] has as its target T1, Muscarinic acetylcholine receptor M2 (Homo sapiens, UniProt P08172).
T1 sequence (P08172 whole entry): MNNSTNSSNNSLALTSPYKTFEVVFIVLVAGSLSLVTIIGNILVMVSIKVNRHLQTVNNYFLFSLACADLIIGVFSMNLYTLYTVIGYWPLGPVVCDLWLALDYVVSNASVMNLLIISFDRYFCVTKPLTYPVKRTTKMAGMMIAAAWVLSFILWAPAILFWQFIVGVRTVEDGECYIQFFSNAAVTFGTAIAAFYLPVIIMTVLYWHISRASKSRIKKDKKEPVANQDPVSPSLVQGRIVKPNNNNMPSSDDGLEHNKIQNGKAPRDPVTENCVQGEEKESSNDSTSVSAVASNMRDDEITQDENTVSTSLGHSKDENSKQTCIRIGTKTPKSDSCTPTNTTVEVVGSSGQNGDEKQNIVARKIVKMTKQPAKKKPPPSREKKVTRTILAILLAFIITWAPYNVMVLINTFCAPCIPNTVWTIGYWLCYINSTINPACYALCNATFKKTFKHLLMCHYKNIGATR

For experiment [2], the target named is T2, Retinoic acid receptor beta (Homo sapiens, UniProt P10826).
T2 sequence (P10826 whole entry): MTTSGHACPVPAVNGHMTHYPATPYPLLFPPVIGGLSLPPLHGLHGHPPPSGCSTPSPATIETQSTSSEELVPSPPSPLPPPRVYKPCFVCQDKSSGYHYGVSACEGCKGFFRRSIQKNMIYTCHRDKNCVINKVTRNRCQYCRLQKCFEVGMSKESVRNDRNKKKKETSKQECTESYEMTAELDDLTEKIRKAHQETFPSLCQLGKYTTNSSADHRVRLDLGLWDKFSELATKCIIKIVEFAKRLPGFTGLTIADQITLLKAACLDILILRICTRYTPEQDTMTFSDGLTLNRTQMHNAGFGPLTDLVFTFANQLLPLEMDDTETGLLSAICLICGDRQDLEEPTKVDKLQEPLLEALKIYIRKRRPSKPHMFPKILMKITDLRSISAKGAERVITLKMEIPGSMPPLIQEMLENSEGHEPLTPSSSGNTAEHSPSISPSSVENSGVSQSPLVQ
The class given is functional, cell-based.

The target in experiment [3] is T3, Oxysterols receptor LXR-alpha (Homo sapiens, UniProt Q13133).
T3 sequence (Q13133 whole entry): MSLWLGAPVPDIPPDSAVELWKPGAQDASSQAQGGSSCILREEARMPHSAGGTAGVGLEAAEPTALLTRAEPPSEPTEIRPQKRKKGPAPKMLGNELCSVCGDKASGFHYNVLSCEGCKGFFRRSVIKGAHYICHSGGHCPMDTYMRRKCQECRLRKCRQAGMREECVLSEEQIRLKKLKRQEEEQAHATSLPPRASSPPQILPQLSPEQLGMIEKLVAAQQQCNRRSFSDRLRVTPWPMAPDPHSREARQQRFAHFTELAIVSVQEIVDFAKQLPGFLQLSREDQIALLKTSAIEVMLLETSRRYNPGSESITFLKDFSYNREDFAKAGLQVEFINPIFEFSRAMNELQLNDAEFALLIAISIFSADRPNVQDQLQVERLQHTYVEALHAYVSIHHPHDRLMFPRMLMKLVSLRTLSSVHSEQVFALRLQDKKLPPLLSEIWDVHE
It is filed as functional.

For experiment [4], the target named is T4, Retinoic acid receptor alpha (Homo sapiens, UniProt P10276).
T4 sequence (P10276 whole entry): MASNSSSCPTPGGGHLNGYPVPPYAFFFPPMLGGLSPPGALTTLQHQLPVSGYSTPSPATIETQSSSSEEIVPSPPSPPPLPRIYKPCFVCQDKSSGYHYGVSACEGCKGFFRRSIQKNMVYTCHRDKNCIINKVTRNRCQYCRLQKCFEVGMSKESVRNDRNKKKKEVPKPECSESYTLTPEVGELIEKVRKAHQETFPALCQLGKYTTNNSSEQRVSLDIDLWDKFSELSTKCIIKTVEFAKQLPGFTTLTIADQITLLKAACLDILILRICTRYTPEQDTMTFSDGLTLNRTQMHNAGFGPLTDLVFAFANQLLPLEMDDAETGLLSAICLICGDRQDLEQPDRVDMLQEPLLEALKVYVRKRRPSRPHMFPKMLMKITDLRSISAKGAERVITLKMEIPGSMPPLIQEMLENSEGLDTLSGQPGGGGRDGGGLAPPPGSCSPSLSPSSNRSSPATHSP
The class given is functional, cell-based.

For experiment [5], the target named is T2, Retinoic acid receptor beta. The class given is functional, cell-based. The source holds these as a separate data set.
In the next experiment the target is T5, Bile acid receptor (Homo sapiens, UniProt Q96RI1).
T5 sequence (Q96RI1 whole entry): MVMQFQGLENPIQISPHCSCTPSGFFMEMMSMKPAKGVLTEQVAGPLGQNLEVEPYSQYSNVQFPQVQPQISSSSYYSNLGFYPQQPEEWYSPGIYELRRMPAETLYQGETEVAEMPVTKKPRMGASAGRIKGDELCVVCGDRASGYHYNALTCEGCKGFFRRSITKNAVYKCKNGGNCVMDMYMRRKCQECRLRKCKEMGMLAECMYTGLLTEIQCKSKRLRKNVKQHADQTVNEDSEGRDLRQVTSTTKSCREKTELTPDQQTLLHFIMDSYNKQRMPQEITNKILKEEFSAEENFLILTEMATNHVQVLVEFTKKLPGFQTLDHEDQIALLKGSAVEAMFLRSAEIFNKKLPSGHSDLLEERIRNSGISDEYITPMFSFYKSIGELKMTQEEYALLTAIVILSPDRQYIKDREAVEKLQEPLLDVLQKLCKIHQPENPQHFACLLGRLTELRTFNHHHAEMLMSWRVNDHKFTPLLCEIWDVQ
It is filed as functional.

Experiment [6] deals with T6, Retinoic acid receptor gamma (Homo sapiens, UniProt P13631).
T6 sequence (P13631 whole entry): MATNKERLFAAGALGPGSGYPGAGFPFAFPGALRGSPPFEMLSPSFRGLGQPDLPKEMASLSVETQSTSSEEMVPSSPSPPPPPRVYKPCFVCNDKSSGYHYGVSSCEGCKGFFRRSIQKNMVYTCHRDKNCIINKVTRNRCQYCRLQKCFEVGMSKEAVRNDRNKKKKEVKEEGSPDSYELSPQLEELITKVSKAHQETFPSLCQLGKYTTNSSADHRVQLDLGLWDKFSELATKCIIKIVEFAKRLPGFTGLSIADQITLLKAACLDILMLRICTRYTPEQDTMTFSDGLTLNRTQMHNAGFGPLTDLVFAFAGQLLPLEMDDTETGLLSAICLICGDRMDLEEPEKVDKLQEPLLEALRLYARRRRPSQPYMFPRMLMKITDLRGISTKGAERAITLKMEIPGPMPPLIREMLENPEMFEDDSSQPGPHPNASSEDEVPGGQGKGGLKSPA
It is filed as functional, cell-based.

The target in another experiment is D(1A) dopamine receptor (Homo sapiens, UniProt P21728).
Chain of D(1A) dopamine receptor (P21728 whole entry): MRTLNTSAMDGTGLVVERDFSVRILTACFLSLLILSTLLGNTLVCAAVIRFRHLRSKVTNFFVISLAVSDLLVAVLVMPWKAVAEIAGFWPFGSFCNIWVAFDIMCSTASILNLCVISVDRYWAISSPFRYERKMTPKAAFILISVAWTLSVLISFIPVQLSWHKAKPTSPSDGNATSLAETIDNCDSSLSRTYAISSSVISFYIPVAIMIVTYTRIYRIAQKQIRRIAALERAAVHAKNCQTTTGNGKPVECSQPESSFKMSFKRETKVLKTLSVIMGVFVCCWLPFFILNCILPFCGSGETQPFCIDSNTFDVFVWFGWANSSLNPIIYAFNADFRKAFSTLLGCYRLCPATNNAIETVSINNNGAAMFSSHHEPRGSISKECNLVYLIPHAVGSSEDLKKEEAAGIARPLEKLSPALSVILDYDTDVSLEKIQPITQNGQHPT
Also: assay procedure not described here.

The term AC50 denotes the concentration at which the activity in the assay is half-maximal. The low end stands for greater potency, the high end for weaker potency. On to `O=C(OCC(O)CO)c1ccccc1Nc1ccnc2cc(Cl)ccc12` (stereo unspecified) [GLAFENINE], for which the AC50 in experiment [1] was > 30 µM.
On the same count and under the same terms, the figure for `Cc1cn([C@H]2C=C[C@@H](CO)O2)c(=O)[nH]c1=O` [STAVUDINE] is > 30 µM.
With `CN1C(C(=O)Nc2ccccn2)=C(O)c2sc(Cl)cc2S1(=O)=O` [LORNOXICAM], the half-maximal activity concentration (AC50) (in experiment [2]; in experiment [3]; in experiment [4]; in experiment [5]; at Bile acid receptor; in experiment [6]) was > 30 µM throughout.
Turning to `CCc1oc2ccccc2c1C(=O)c1cc(I)c(O)c(I)c1` [BENZIODARONE], the AC50 on D(1A) dopamine receptor was > 30 µM.
As to `Cc1c(C(=O)NN2CCCCC2)nn(-c2ccc(Cl)cc2Cl)c1-c1ccc(Cl)cc1` [RIMONABANT], the AC50 (in experiment [2]; in experiment [3]; in experiment [4]; in experiment [5]; on Bile acid receptor; in experiment [6]) was > 30 µM each time.
`CC[C@H]1OC(=O)[C@H](C)[C@@H](O[C@H]2C[C@@](C)(OC)[C@@H](O)[C@H](C)O2)[C@H](C)[C@@H](O[C@@H]2O[C@H](C)C[C@H](N(C)C)[C@H]2O)[C@](C)(O)C[C@@H](C)CN(C)[C@H](C)[C@@H](O)[C@]1(C)O` [AZITHROMYCIN]: the AC50 on D(1A) dopamine receptor was > 30 µM.
